Assay results from publication PMC4413193, “3-[4-(1H-Indol-3-yl)-1,3-thiazol-2-yl]-1H-pyrrolo[2,3-b]pyridines, Nortopsentin Analogues with Antiproliferative Activity” (Marine Drugs, 2015).

Legend:
[1] = system: UACC-257; assay: NCI-60 in vitro tumor cell growth inhibition, UACC-257 (melanoma); type: cell-based; conditions: Homo sapiens, five concentration levels
Description: (§1) All the synthesized thiazoles 3a–k were evaluated by the National Cancer Institute (Bethesda MD) for cytotoxicity against the NCI-60 cell line panel using standard protocols. Initially, the selected derivatives 3c,d,g,h,j,k were tested at a single dose (10^−5 M) on the full panel of approximately 60 human tumor cell lines derived from 9 human cancer cell types, that have been grouped in disease sub-panels including leukemia, non-small-cell lung, colon, central nervous system (CNS), melanoma, ovarian, renal, prostate and breast cancers (data not shown). Compounds 3d and 3k were further selected for full evaluation at five concentration levels (10^−4–10^−8 M).
(§2) The antitumor activity of compounds 3d and 3k was given by three parameters for each cell line: GI50 (the molar concentration of the compound that inhibits 50% net cell growth), TGI (the molar concentration of the compound leading to total inhibition of net cell growth), and LC50 (the molar concentration of the compound that induces 50% net cell death). The average values of mean graph midpoint (MG_MID) were calculated for each of these parameters.

[2] = system: LOX IMVI; assay: NCI-60 in vitro tumor cell growth inhibition, LOX IMVI (melanoma); type: cell-based; conditions: Homo sapiens, five concentration levels
Description: as §1, §2

[3] = system: HepG2 cells; assay: Intracellular reactive oxygen species, DCFH flow cytometry; type: cell-based, human; conditions: HepG2, 24 h treatment
Description: Involvement of mitochondria in apoptosis induced in HepG2 cells by the synthesized nortopsentin analogues, was assessed. Loss of mitochondrial trans-membrane potential was indicated by decreased mitochondrial 3,30-dihexyloxacarbocyanine iodide-red fluorescence (Figure 4A).
ROS level was monitored by measuring fluorescence changes that resulted from intracellular oxidation of 2′,7′-dichlorofluorescin diacetate (DCFH). DCFH, at […] final concentration, was added to the cell medium 30 min before the end of the treatment. The cells were collected by centrifugation for 5 min at 2000 rpm at 4 °C, washed, suspended in PBS and immediately subjected to fluorescence-activated cell sorting analysis. At least 1 × 10^4 cells were analyzed for each sample.

[4] = system: A549/ATCC; assay: NCI-60 in vitro tumor cell growth inhibition, A549/ATCC (non-small cell lung cancer); type: cell-based; conditions: Homo sapiens, five concentration levels
Description: as §1, §2

[5] = system: SR; assay: NCI-60 in vitro tumor cell growth inhibition, SR (leukemia); type: cell-based; conditions: Homo sapiens, five concentration levels 10^−4–10^−8 M
Description: as §1, §2

[6] = system: HL-60(TB); assay: NCI-60 in vitro tumor cell growth inhibition, HL-60(TB) (leukemia); type: cell-based; conditions: Homo sapiens, five concentration levels 10^−4–10^−8 M
Description: as §1, §2

[7] = system: IGROV1; assay: NCI-60 in vitro tumor cell growth inhibition, IGROV1 (ovarian cancer); type: cell-based; conditions: Homo sapiens, IGROV-1, five concentration levels
Description: as §1, §2

[8] = system: HOP-62; assay: NCI-60 in vitro tumor cell growth inhibition, HOP-62 (non-small cell lung cancer); type: cell-based; conditions: Homo sapiens, five concentration levels
Description: as §1, §2

[9] = system: NCI-H226; assay: NCI-60 in vitro tumor cell growth inhibition, NCI-H226 (non-small cell lung cancer); type: cell-based; conditions: Homo sapiens, five concentration levels
Description: as §1, §2

[10] = system: EKVK; assay: NCI-60 in vitro tumor cell growth inhibition, EKVK (non-small cell lung cancer); type: cell-based; conditions: Homo sapiens, five concentration levels
Description: as §1, §2

[11] = system: M14; assay: NCI-60 in vitro tumor cell growth inhibition, M14 (melanoma); type: cell-based; conditions: Homo sapiens, five concentration levels
Description: as §1, §2

[12] = system: U251; assay: NCI-60 in vitro tumor cell growth inhibition, U251 (CNS cancer); type: cell-based; conditions: Homo sapiens, U-251, five concentration levels
Description: as §1, §2

[13] = system: SF-268; assay: NCI-60 in vitro tumor cell growth inhibition, SF-268 (CNS cancer); type: cell-based; conditions: Homo sapiens, five concentration levels
Description: as §1, §2

[14] = system: HepG2 cells; assay: Phosphatidylserine exposure, Annexin V-FITC/PI flow cytometry; type: cell-based, human; conditions: HepG2, 24 h, at GI50 values
Description: Apoptosis induction by 3d and 3k in HepG2 cells was investigated by externalization of plasma membrane phosphatidylserine and changes of mitochondrial transmembrane potential.
The apoptosis-induced PS externalization to the cell surface was measured by flow cytometry by double staining with Annexin V-Fluorescein isothiocyanate (Annexin V-FITC)/propidium iodide (PI). Annexin V binding to phosphatidylserine is used to identify the earliest stage of apoptosis. […] HepG2 cells were seeded in triplicate in 24-wells culture plates at a density of 2.0 × 10^5 cells/cm^2. After an overnight incubation, cells were washed with fresh medium and incubated with the compounds in RPMI. After 24 h, cells were harvested by trypsinization and adjusted at 2.0 × 10^5 cells/mL with combining buffer. One hundred μL of cell suspended solution was added to a new tube, and incubated with 5 µL annexin V and 10 μL of a 20 μg/mL PI solution at room temperature in the dark for 15 min. Then at least 1.0 × 10^4 cells were immediately subjected to FACS analysis using appropriate 2-bidimensional gating method.

[15] = system: MCF7; assay: NCI-60 in vitro tumor cell growth inhibition, MCF7 (breast cancer); type: cell-based; conditions: Homo sapiens, five concentration levels
Description: as §1, §2

[16] = system: NCI/ADR-RES; assay: NCI-60 in vitro tumor cell growth inhibition, NCI/ADR-RES (ovarian cancer); type: cell-based; conditions: Homo sapiens, five concentration levels
Description: as §1, §2

[17] = system: SNB-75; assay: NCI-60 in vitro tumor cell growth inhibition, SNB-75 (CNS cancer); type: cell-based; conditions: Homo sapiens, five concentration levels
Description: as §1, §2

[18] = system: HCT-15; assay: NCI-60 in vitro tumor cell growth inhibition, HCT-15 (colon cancer); type: cell-based; conditions: Homo sapiens, five concentration levels
Description: as §1, §2

[19] = system: MDA-MB-468; assay: NCI-60 in vitro tumor cell growth inhibition, MDA-MB-468 (breast cancer); type: cell-based; conditions: Homo sapiens, five concentration levels
Description: as §1, §2

[20] = system: SK-MEL-28; assay: NCI-60 in vitro tumor cell growth inhibition, SK-MEL-28 (melanoma); type: cell-based; conditions: Homo sapiens, five concentration levels
Description: as §1, §2

[21] = system: MDA-MB-435; assay: NCI-60 in vitro tumor cell growth inhibition, MDA-MB-435 (melanoma); type: cell-based; conditions: Homo sapiens, five concentration levels
Description: as §1, §2

[22] = system: OVCAR-5; assay: NCI-60 in vitro tumor cell growth inhibition, OVCAR-5 (ovarian cancer); type: cell-based; conditions: Homo sapiens, five concentration levels
Description: as §1, §2

[23] = system: NCI-H23; assay: NCI-60 in vitro tumor cell growth inhibition, NCI-H23 (non-small cell lung cancer); type: cell-based; conditions: Homo sapiens, five concentration levels
Description: as §1, §2

[24] = system: OVCAR-3; assay: NCI-60 in vitro tumor cell growth inhibition, OVCAR-3 (ovarian cancer); type: cell-based; conditions: Homo sapiens, five concentration levels
Description: as §1, §2

[25] = system: SK-OV-3; assay: NCI-60 in vitro tumor cell growth inhibition, SK-OV-3 (ovarian cancer); type: cell-based; conditions: Homo sapiens, five concentration levels
Description: as §1, §2

[26] = system: MALME-3M; assay: NCI-60 in vitro tumor cell growth inhibition, MALME-3M (melanoma); type: cell-based; conditions: Homo sapiens, five concentration levels
Description: as §1, §2

[27] = system: NCI-H460; assay: NCI-60 in vitro tumor cell growth inhibition, NCI-H460 (non-small cell lung cancer); type: cell-based; conditions: Homo sapiens, five concentration levels
Description: as §1, §2

[28] = system: NCI-H322M; assay: NCI-60 in vitro tumor cell growth inhibition, NCI-H322M (non-small cell lung cancer); type: cell-based; conditions: Homo sapiens, five concentration levels
Description: as §1, §2

[29] = system: COLO-205; assay: NCI-60 in vitro tumor cell growth inhibition, COLO-205 (colon cancer); type: cell-based; conditions: Homo sapiens, five concentration levels
Description: as §1, §2

Cn1cc(-c2csc(-c3cn(C)c4ncccc34)n2)c2ccccc21 [Compound 3d, 1-Methyl-3-[4-(1-methyl-1H-indol-3-yl)-1,3-thiazol-2-yl]-1H-pyrrolo[2,3-b]pyridine]
GI50 [1]: 13000 nM | GI50 [2]: 540 nM | levels of intracellular ROS [3]: significantly higher than cell control | GI50 [4]: 560 nM | GI50 [5]: 60 nM | GI50 [6]: 290 nM | GI50 [7]: 1330 nM | GI50 [8]: 810 nM | GI50 [9]: 740 nM | GI50 [10]: 910 nM | GI50 [11]: 270 nM | GI50 [12]: 410 nM | GI50 [13]: 2440 nM | apoptosis induction, externalized phosphatidylserine [14]: high percentage of cells in early apoptosis | GI50 [15]: 330 nM | GI50 [16]: 90 nM | GI50 [17]: 160 nM | GI50 [18]: 170 nM | GI50 [19]: 280 nM | GI50 [20]: 1200 nM | GI50 [21]: 30 nM | GI50 [22]: 1410 nM | GI50 [23]: 720 nM | GI50 [24]: 100 nM | GI50 [25]: 570 nM | GI50 [26]: 1040 nM | GI50 [27]: 300 nM | GI50 [28]: 760 nM | GI50 [29]: 190 nM

Cn1cc(-c2nc(-c3c[nH]c4ccccc34)cs2)c2cccnc21 [Compound 3k, 3-[4-(1H-Indol-3-yl)-1,3-thiazol-2-yl]-1-methyl-1H-pyrrolo[2,3-b]pyridine]
GI50 [1]: 14200 nM | GI50 [2]: 510 nM | levels of intracellular ROS [3]: significantly higher than cell control | GI50 [4]: 710 nM | GI50 [5]: 140 nM | GI50 [6]: 320 nM | GI50 [7]: 1180 nM | GI50 [8]: 930 nM | GI50 [9]: 650 nM | GI50 [10]: 910 nM | GI50 [11]: 280 nM | GI50 [12]: 430 nM | GI50 [13]: 940 nM | apoptosis induction, externalized phosphatidylserine [14]: high percentage of cells in early apoptosis | GI50 [15]: 370 nM | GI50 [16]: 150 nM | GI50 [17]: 140 nM | GI50 [18]: 290 nM | GI50 [19]: 230 nM | GI50 [20]: 760 nM | GI50 [21]: 40 nM | GI50 [22]: 2390 nM | GI50 [23]: 670 nM | GI50 [24]: 250 nM | GI50 [25]: 520 nM | GI50 [26]: 740 nM | GI50 [27]: 370 nM | GI50 [29]: 190 nM
